Assay type in all cases: biochemical
In assay [1] the target is PI3K-gamma (Homo sapiens, UniProt P48736). Briefly: PI3K-gamma fluorescence polarization assay. The note with it: read-out: PI3 Kinase γ IC50. How it is done: (§1) The reaction buffer was 20 mM HEPES, pH 7.5, 2 mM MgCl2, 0.05% CHAPS; and 0.01% βME (added fresh). The Stop/Detection Buffer was 100 mM HEPES, pH 7.5, 4 mM EDTA, 0.05% CHAPS; ATP 20 mM in water; PIP2 (diC8, Echelon, Salt Lake City Utah cat #P-4508) 1 mM in water (MW=856.5). The GST-GRP was 1.75 mg/mL or 1.4 mg/mL in 10% glycerol. The Red detector (TAMRA) was 2.5 μM. Nunc 384-well black polypropylene fluorescent plates were used for PI3K assays.
(§2) The assay is run by placing 5 μL of diluted enzyme per well, then 5 μL of diluted compound (or 9.5 μL enzyme then 0.5 μL compound in DMSO) is added and mixed. Then, 10 μL substrate is added to start the reaction. The samples are incubated 30-60 minutes, then the reaction is stopped by adding 20 μL stop/detector mix. PI3K is diluted with reaction buffer (e.g., 5 μL or 7.5 μL PI3K into 620 μL reaction buffer), and 5 μL of diluted enzyme is used per well. A 5 μL portion of reaction buffer or of drug diluted in buffer (e.g., 4 μL/100 so final DMSO is 1% in reaction) is added to each. Pipetting up and down mixes the samples. Alternatively, the enzyme can be diluted to 1215 μL. In this case 9.8 μL is added per well and 0.2 μL compound is added in DMSO.
(§3) To prepare 1 mL of substrate solution, 955 μL reaction buffer, 40 μL PIP2, and 2.5 μL ATP are mixed. 10 μL of substrate is added to each well to start the reaction. […] The stop/detector mix is prepared by mixing 4 μL Red detector and 1.6 μL or 2.0 μL GST-GRP with 1 mL stop buffer, which results in 10 nM probe and 70 nM GST-GRP. 20 μL of the stop/detector mix is added to each well to stop the reaction. The plates are read after 30-90 minutes keeping the red probe solutions dark. For the zero time point, stop/detector mix is added to the enzyme just before adding substrate. For an extra control, stop/detector mix is added to buffer (no enzyme) and substrate or to just buffer (no substrate). […] The recommended reaction has 0.06 μL per 20 μL (0.015 μg/20 μL) or 0.01125 μg/15 μL or 0.75 μg/mL.
(§4) Plates are read on machines with filters for TAMRA. The units are mP with no enzyme controls reading app 190-220 mP units. Fully active enzyme reduces fluorescence polarization down to 70-100 mP after 30 minutes. An active compound raises the mP values halfway to control or to 120-150 mP units.

Assay [2] deals with PI3K-alpha (Homo sapiens, UniProt P42336). Briefly: PI3K-alpha fluorescence polarization assay. The note with it: read-out: PI3 Kinase α IC50. On the procedure: as §1, §2, §3, §4
Assay [3] concerns the target Human mTOR (Homo sapiens, UniProt P42345). The assay is described as follows: mTOR kinase assay (DELFIA format, purified enzyme). Details: FLAG. As to conditions: read-out: TOR Kinase IC50.

pIC50: −log10 of the molar value. Bounds are passed on as bounds.

Chain of PI3K-gamma (P48736 whole entry, species assumed): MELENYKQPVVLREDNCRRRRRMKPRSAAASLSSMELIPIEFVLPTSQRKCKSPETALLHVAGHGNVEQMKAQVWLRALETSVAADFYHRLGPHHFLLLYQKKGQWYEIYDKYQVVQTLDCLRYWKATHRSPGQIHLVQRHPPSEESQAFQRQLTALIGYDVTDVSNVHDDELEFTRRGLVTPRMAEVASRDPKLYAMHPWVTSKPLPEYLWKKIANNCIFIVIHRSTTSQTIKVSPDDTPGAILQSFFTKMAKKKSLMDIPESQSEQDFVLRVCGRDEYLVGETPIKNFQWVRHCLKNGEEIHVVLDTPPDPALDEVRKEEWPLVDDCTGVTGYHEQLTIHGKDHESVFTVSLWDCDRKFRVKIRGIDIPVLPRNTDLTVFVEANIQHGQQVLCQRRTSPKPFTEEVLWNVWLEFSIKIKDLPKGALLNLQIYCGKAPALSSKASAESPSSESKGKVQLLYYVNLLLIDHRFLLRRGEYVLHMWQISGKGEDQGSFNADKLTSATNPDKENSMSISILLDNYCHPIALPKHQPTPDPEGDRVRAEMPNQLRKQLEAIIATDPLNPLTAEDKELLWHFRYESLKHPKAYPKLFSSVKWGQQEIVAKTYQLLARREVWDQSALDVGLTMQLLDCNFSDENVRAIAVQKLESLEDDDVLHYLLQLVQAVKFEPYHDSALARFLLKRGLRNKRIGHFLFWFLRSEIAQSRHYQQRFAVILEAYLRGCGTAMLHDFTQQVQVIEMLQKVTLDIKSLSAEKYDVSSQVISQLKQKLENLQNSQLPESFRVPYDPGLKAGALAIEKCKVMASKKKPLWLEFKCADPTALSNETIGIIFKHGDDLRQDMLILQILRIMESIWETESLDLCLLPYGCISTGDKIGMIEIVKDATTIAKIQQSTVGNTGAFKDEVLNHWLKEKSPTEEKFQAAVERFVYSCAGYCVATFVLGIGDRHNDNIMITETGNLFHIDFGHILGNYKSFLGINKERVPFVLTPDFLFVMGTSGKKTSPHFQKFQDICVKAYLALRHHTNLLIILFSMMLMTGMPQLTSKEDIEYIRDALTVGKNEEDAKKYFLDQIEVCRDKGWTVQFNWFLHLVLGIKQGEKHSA
Chain of PI3K-alpha (P42336 whole entry, species assumed): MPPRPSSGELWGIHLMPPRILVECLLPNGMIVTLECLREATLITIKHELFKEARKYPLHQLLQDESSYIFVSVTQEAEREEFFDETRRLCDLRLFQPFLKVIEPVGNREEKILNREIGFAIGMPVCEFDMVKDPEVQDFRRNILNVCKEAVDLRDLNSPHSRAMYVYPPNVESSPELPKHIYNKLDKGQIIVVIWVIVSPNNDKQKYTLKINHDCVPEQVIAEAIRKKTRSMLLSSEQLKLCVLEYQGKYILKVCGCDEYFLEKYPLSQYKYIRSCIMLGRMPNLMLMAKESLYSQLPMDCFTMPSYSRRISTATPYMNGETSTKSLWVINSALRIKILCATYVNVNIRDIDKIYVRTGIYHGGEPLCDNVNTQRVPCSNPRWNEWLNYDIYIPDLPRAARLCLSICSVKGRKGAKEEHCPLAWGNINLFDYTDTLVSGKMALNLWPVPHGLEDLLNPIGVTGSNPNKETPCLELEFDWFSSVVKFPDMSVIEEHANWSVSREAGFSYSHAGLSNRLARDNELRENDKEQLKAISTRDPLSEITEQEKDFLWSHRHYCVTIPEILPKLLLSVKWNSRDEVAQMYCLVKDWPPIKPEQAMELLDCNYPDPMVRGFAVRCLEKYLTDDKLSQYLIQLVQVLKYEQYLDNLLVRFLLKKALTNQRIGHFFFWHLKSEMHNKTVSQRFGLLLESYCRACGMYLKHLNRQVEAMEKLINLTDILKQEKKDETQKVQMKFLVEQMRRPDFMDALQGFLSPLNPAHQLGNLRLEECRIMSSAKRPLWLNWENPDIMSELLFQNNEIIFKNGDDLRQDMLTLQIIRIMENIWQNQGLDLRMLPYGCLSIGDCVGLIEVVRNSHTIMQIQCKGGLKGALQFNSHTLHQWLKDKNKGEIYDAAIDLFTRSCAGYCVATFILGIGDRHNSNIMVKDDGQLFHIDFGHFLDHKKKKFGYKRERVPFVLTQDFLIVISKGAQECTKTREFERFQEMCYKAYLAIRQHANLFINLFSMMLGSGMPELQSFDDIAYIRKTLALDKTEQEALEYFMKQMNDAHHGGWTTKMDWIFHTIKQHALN
Chain of PI3K-alpha (P27986 whole entry partner, species assumed): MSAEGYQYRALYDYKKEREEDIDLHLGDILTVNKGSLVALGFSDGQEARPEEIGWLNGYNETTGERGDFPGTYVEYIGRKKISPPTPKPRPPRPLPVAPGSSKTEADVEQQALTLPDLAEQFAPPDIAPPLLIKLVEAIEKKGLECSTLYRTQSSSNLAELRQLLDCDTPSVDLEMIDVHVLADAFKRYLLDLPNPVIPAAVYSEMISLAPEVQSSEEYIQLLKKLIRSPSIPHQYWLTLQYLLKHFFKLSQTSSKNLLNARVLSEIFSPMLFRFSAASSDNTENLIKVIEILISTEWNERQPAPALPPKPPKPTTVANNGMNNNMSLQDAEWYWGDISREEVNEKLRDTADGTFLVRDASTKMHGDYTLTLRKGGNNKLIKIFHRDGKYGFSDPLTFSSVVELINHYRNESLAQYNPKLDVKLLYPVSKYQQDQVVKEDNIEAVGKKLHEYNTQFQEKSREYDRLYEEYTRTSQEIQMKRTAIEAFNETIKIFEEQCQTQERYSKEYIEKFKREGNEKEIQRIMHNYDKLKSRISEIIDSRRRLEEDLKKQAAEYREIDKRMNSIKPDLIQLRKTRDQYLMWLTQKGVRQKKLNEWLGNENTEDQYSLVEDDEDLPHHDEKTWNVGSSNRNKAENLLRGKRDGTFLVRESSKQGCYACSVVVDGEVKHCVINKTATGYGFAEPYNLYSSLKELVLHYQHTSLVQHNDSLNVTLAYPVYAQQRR

As for `Cn1ccc2c3nc(-c4cncc(O)c4)nc(N4CCOCC4)c3ccc21` [Example 78, 5-(7-methyl-4-morpholin-4-yl-7H-pyrrolo[2,3-h]quinazolin-2-yl)pyridin-3-ol], the pIC50 (commonly the IC50 on a negative log10 scale, so that one unit is a factor of ten) in assay [1] is 6.41; in assay [2], 7.14; in assay [3], 6.52.

With `O=C(OCc1ccccc1)N1CCC(S(=O)(=O)n2ccc3c4nc(-c5cccc(O)c5)nc(N5CCOCC5)c4ccc32)CC1` [Example 66, benzyl 4-{[2-(3-hydroxyphenyl)-4-morpholin-4-yl-7H-pyrrolo[2,3-h]quinazolin-7-yl]sulfonyl}piperidine-1-carboxylate], the pIC50 in assay [1] was 5.24; in assay [2], 6.61; in assay [3] it was 5.65.

Turning to `OCc1cccc(-c2nc(N3CCOCC3)c3ccc4[nH]ccc4c3n2)c1` [Example 57], the figures for the pIC50 in assay [1], in assay [2] and in assay [3] were 5.45, 6.29 and 6.63, respectively.

Regarding `CCOC(=O)Nc1ccc(-c2nc(N3CCOCC3)c3ccc4c(ccn4C)c3n2)cc1` [Example 20, ethyl [4-(7-methyl-4-morpholin-4-yl-7H-pyrrolo[2,3-h]quinazolin-2-yl)phenyl]carbamate], the pIC50 is 5.68 in assay [1], 5.48 in assay [2] and 6.41 in assay [3].

Consider `O=S(=O)(c1ccccc1)n1ccc2c3nc(-c4cccc(O)c4)nc(N4CCOCC4)c3ccc21` [Example 69, 3-[4-morpholin-4-yl-7-(phenylsulfonyl)-7H-pyrrolo[2,3-h]quinazolin-2-yl]phenol], for which the pIC50 was 5.95 in assay [1], 6.56 in assay [2] and 5.95 in assay [3].

With `CC(C)(C)OC(=O)Cn1ccc2c3nc(-c4ccc(N)nc4)nc(N4CCOCC4)c3ccc21` [Example 60, tert-butyl [2-(6-aminopyridin-3-yl)-4-morpholin-4-yl-7H-pyrrolo[2,3-h]quinazolin-7-yl]acetate], the figures for the pIC50 in assay [1], in assay [2] and in assay [3] were 5.31, 6.11 and 5.87, respectively.

As to `CS(=O)(=O)n1ccc2c3nc(-c4cncc(O)c4)nc(N4CCOCC4)c3ccc21` [Example 76, 5-[7-(methylsulfonyl)-4-morpholin-4-yl-7H-pyrrolo[2,3-h]quinazolin-2-yl]pyridin-3-ol], the results for the pIC50 in assay [1], in assay [2] and in assay [3] were 7.09, 7.19 and 6.89, respectively.

Turning to `Cn1ccc2c3nc(-c4cccc(O)c4)nc(N4CCOCC4)c3ccc21` [Example 35, 3-(7-methyl-4-morpholin-4-yl-7H-pyrrolo[2,3-h]quinazolin-2-yl)phenol], the values for the pIC50 in assay [1], in assay [2] and in assay [3] were 5.65, 6.76 and 6.39, respectively.

Regarding `Cn1ccc2c3nc(-c4cccc(C(O)c5ccccc5)c4)nc(N4CCOCC4)c3ccc21` (stereo not drawn) [Example 29, [3-(7-methyl-4-morpholin-4-yl-7H-pyrrolo[2,3-h]quinazolin-2-yl)phenyl](phenyl)methanol], the results for the pIC50 in assay [1], in assay [2] and in assay [3] were 5.39, 5.53 and 5.42, respectively.

Take `CN(C)CCn1ccc2c3nc(-c4ccc(NC(=O)Nc5ccncc5)cc4)nc(N4CCOCC4)c3ccc21` [Example 33, 1-(4-{7-[2-(dimethylamino)ethyl]-4-morpholin-4-yl-7H-pyrrolo[2,3-h]quinazolin-2-yl}phenyl)-3-pyridin-4-ylurea]: the figures for the pIC50 in assay [1], in assay [2] and in assay [3] were 6.06, 6.65 and 7.82, respectively.

Take `c1cc(-c2nc(N3CCOCC3)c3ccc4[nH]ccc4c3n2)c2cn[nH]c2c1` [Example 80, 2-(1H-indazol-4-yl)-4-morpholin-4-yl-7H-pyrrolo[2,3-h]quinazoline]: the results for the pIC50 in assay [1], in assay [2] and in assay [3] were < 5.00, 4.99 and 5.68, respectively.

For `CC(O)c1cccc(-c2nc(N3CCOCC3)c3ccc4c(ccn4C)c3n2)c1` (stereo not drawn) [Example 24, 1-[3-(7-methyl-4-morpholin-4-yl-7H-pyrrolo[2,3-h]quinazolin-2-yl)phenyl]ethanol], the pIC50 in assay [1] is < 5.00; in assay [2], 5.63; in assay [3] it was 5.78.

Regarding `Cn1ccc2c3nc(-c4ccc(NC(=O)Nc5cccc(Cl)c5)cc4)nc(N4CCOCC4)c3ccc21` [Example 13, 1-(3-chlorophenyl)-3-[4-(7-methyl-4-morpholin-4-yl-7H-pyrrolo[2,3-h]quinazolin-2-yl)phenyl]urea], the pIC50 was 6.63 in assay [1], 7.21 in assay [2] and 6.59 in assay [3].

Take `CN1CCC(S(=O)(=O)n2ccc3c4nc(-c5ccc(NC(=O)Nc6ccncc6)cc5)nc(N5CCOCC5)c4ccc32)CC1` [Example 63, 1-(4-{7-[(1-methylpiperidin-4-yl)sulfonyl]-4-morpholin-4-yl-7H-pyrrolo[2,3-h]quinazolin-2-yl}phenyl)-3-pyridin-4-ylurea]: the pIC50 is 6.31 in assay [1], 6.92 in assay [2] and 7.17 in assay [3].

In the case of `Cn1ccc2c3nc(-c4ccc(NS(=O)(=O)c5ccccc5)cc4)nc(N4CCOCC4)c3ccc21` [Example 22, N-[4-(7-methyl-4-morpholin-4-yl-7H-pyrrolo[2,3-h]quinazolin-2-yl)phenyl]benzenesulfonamide], the pIC50 in assay [1] was 5.21; in assay [2], 5.08; in assay [3], 5.28.

With `O=C(Nc1ccncc1)Nc1ccc(-c2nc(N3CCOCC3)c3ccc4c(ccn4S(=O)(=O)C4CCN(C(=O)OCc5ccccc5)CC4)c3n2)cc1` [Example 61, benzyl 4-[(4-morpholin-4-yl-2-{4-[(pyridin-4-ylcarbamoyl)amino]phenyl}-7H-pyrrolo[2,3-h]quinazolin-7-yl)sulfonyl]piperidine-1-carboxylate], the pIC50 in assay [1] is 5.46; in assay [2] it was 6.42; in assay [3], 6.89.

In the case of `O=S(=O)(C1CCNCC1)n1ccc2c3nc(-c4cccc(O)c4)nc(N4CCOCC4)c3ccc21` [Example 67, 3-[4-morpholin-4-yl-7-(piperidin-4-ylsulfonyl)-7H-pyrrolo[2,3-h]quinazolin-2-yl]phenol], the figures for the pIC50 in assay [1], in assay [2] and in assay [3] were 5.80, 6.64 and 6.17, respectively.

As for `Cn1ccc2c3nc(-c4cccc(C=O)c4)nc(N4CCOCC4)c3ccc21` [Example 23, 3-(7-methyl-4-morpholin-4-yl-7H-pyrrolo[2,3-h]quinazolin-2-yl)benzaldehyde], the results for the pIC50 in assay [1], in assay [2] and in assay [3] were 5.02, 5.27 and 6.49, respectively.

As for `O=Cc1c[nH]c2ccc3c(N4CCOCC4)nc(-c4cccc(O)c4)nc3c12` [Example 82, 2-(3-hydroxyphenyl)-4-morpholin-4-yl-7H-pyrrolo[2,3-h]quinazoline-9-carbaldehyde], the results for the pIC50 in assay [1], in assay [2] and in assay [3] were 6.83, 6.95 and 7.80, respectively.

On to `Cn1ccc2c3nc(-c4ccc(O)nc4)nc(N4CCOCC4)c3ccc21` [Example 48, 5-(7-methyl-4-morpholin-4-yl-7H-pyrrolo[2,3-h]quinazolin-2-yl)pyridin-2-ol], for which the pIC50 in assay [1] was < 5.00; in assay [2], < 5.00; in assay [3], 5.12.

`Cn1ccc2c3nc(-c4cccc(S(=O)(=O)NC5CC5)c4)nc(N4CCOCC4)c3ccc21` [Example 56, N-cyclopropyl-3-(7-methyl-4-morpholin-4-yl-7H-pyrrolo[2,3-h]quinazolin-2-yl)benzenesulfonamide]: the results for the pIC50 in assay [1], in assay [2] and in assay [3] were 5.17, 5.16 and 7.30, respectively.

Turning to `CC(=O)Nc1ccc(-c2nc(N3CCOCC3)c3ccc4c(ccn4C)c3n2)cc1` [Example 16, N-[4-(7-methyl-4-morpholin-4-yl-7H-pyrrolo[2,3-h]quinazolin-2-yl)phenyl]acetamide], the pIC50 in assay [1] is < 5.00; in assay [2] it was 5.51; in assay [3] it was 6.43.

With `C=CCC(O)c1cccc(-c2nc(N3CCOCC3)c3ccc4c(ccn4C)c3n2)c1` (stereo not drawn) [Example 27, 1-[3-(7-methyl-4-morpholin-4-yl-7H-pyrrolo[2,3-h]quinazolin-2-yl)phenyl]but-3-en-1-ol], the pIC50 in assay [1] is 5.18; in assay [2] it was 5.18; in assay [3], 5.55.

These data come from patent publication US20090227575A1, “7H-PYRROLO[2,3-H]QUINAZOLINE COMPOUNDS, THEIR USE AS mTOR KINASE AND PI3 KINASE INHIBITORS, AND THEIR [sequence]” (Wyeth, priority 2008, published 2009).
